Measurements from patent US20130202586A1, “STEM CELL THERAPY USING INHIBITORS OF LYSOPHOSPHATIDIC ACID” (priority 2011, published 2013).

Legend:
[1] = test system: plated neurospheres (human NSC); assay: Neuronal differentiation: neuron-forming neurospheres; assay type: cell-based
Procedure: (§1) Neurospheres were formed and cultured as described in Dottori, M. et al. (2008), supra. Briefly, human embryonic stem cells (HES-2, HES-3, and HES-4, WiCell Research Institute, Madison Wis.) were cultured according to previously published methods. Neuronal induction using noggin was performed according to published methods and after growth and subculture, cells were grown as neurospheres in the presence of growth factors. Neurospheres could be plated on dishes coated with laminin or fibronectin. When plated onto laminin and cultured with neural basal medium (NBM, R&D Systems, Minneapolis Minn.), neurospheres typically differentiate into neurons. Quantitation of neuron-forming spheres (a measure of neuronal differentiation) was done by counting the number of neurospheres from which neuronal outgrowth was visible.
[…] […] Dilutions of LPA were made in 0.1% fatty acid-free bovine serum albumin (final concentration 0.01% BSA).
The effect of LPA on an additional differentiation step, the differentiation of NSC toward mature cells, was also measured. When plated on laminin in NBM, neurospheres typically differentiate into neurons, as assayed by visible neurons, elongated cell shape and/or positive staining for β-tubulin.
Using the same conditions used in Example 2 for LPA treatment alone, plated neurospheres were treated with 10 μM LPA alone, or with anti-LPA antibody B3 or B7 (1 mg/ml) alone, or with 10 μM LPA in combination with 1 mg/ml of antibody B3 or B7. Similarly, cells were treated with 10 μM LPA alone, humanized anti-LPA antibody LT3015 alone (1 mg/ml) or with 10 μM LPA in combination with 1 mg/ml LT3015. The percent of neuron-forming neurospheres was quantitated as in Example 2 (beta-tubulin staining and quantification of neuron-forming spheres, as described in Dottori, et al (2008)). […] Neurosphere samples treated with B3 antibody alone had neuron-forming neurospheres equivalent to control (100%). […] The antibody B7, under similar conditions, had little to no effect in this experiment (37.00±5.31% of control). […]

[2] = test system: noggin-treated cells (human NSC); assay: Neurosphere formation from noggin-treated human embryonic stem cells; assay type: cell-based; details: 5-7 days
Procedure: as §1
Plated neurospheres were incubated in the presence or absence of LPA (Sigma Aldrich, St. Louis, Mo.) and/or antibody (concentrations shown) for 5 days. Dilutions of LPA were made in 0.1% fatty acid-free bovine serum albumin (final concentration 0.01% BSA).
As shown by Dottori et al., LPA inhibits the ability of NSC to form neurospheres, even in the presence of bFGF and EGF. […] […] Dottori, M. et al. (2008), supra. […]

adult mouse NSC = assay: Neuronal differentiation of adult mouse NSC; assay type: cell-based
From the text: However, and similarly to data obtained in human NSC, LPA inhibited the neuronal differentiation of adult mouse NSC by maintaining them as NSC when plated in conditions normally inducing neuronal differentiation. […] These effects were independent of apoptosis or proliferation.

[3] = test system: noggin-treated cells (human NSC); details: 10 μM LPA, 11-14 days, Dottori et al.; cited from earlier work
[4] = test system: plated neurospheres (human NSC); details: 10 μM LPA, Dottori et al.; cited from earlier work

Question: Which results are given for lysophosphatidic acid [LPA]?
Answer: neuron-forming neurospheres, % of untreated control ([1]; Example 4, 10 μM LPA alone): approximately 25.00±6.45%; neuron-forming spheres, % of control ([1]; Example 5, 3 days, 10 μM LPA alone): approximately 26%; neuron-forming neurospheres, pool of data ([1]; LPA alone): 25.00±6.45%; % neurosphere formation ([2]; 10 μM LPA): 13.500±5.590%; % neurosphere formation ([2]; LPA at 1 μM): 50±12.50%; neurosphere formation or growth of mouse NSC (adult mouse NSC): did not modify neurosphere formation or growth; nestin positive, % of total cells (adult mouse NSC; LPA 10 μM, three days): 87.55±3.20%; βIII-tubulin expression, % of total cells (adult mouse NSC; LPA 10 μM, three days): 26.25±2.08%; % of cultures formed neurospheres [3]: 13.47%±6.94; neuronal cells from plated neurospheres [4]: did not give rise to neuronal cells
